{"source": "paper PMC5501184", "about": "(Journal of medicinal chemistry, 2017)", "key": {"hDAT [1]": {"target": "T1, hDAT (Homo sapiens, UniProt Q01959)", "T1 sequence (Q01959 whole entry)": "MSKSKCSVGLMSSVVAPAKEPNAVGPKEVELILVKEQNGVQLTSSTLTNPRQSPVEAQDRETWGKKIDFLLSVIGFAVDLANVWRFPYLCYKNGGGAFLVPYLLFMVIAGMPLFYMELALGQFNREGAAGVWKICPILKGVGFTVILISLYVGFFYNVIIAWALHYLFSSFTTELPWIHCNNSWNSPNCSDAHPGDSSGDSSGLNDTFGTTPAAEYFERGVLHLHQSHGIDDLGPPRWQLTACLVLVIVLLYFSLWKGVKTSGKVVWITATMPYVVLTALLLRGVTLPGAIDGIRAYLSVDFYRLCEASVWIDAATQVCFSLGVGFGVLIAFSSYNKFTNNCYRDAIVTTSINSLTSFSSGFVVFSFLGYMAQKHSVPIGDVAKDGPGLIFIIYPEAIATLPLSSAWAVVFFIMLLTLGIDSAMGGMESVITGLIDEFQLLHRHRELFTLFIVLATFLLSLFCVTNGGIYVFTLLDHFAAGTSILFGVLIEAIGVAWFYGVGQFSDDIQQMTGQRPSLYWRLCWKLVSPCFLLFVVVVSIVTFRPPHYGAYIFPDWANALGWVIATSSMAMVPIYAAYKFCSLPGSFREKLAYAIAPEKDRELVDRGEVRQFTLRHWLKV", "conditions": "10 μM; [^3H]24 binding, PDSP; ref Janowsky et al.[3]; cited from earlier work"}, "[2]": {"system": "cytochrome P450 (5 isozymes)", "conditions": "cited from earlier work"}, "[3]": {"conditions": "cited from earlier work"}, "mouse": {"system": "mouse", "conditions": "cited from earlier work"}, "[4]": {"conditions": "metabolomic study; cited from earlier work"}, "mA3AR": {"target": "T2, mA3AR (Mus musculus, UniProt Q61618)", "T2 sequence (Q61618 1-319)": "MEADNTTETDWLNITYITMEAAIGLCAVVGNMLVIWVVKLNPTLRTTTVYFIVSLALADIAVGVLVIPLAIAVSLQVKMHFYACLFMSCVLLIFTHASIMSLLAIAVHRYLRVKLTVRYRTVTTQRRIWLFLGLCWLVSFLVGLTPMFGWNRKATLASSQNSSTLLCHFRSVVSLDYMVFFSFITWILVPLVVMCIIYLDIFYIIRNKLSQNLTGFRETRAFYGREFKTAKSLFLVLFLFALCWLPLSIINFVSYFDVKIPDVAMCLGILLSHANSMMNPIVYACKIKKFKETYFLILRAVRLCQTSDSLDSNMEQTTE", "assay": "A3AR radioligand", "type": "binding", "conditions": "for A3AR Binding % at 10 μM (m): mouse, % inhibition at 10 μM, radioligand [^125I]25"}, "hDAT [5]": {"target": "T1, hDAT", "assay": "PDSP screen: [^3H]24 binding at hDAT", "conditions": "for inhibition at 10 µM: read-out: hDAT Binding Inhibition, % of control"}, "hNET": {"target": "hNET (Homo sapiens, UniProt P23975)", "sequence (P23975 whole entry)": "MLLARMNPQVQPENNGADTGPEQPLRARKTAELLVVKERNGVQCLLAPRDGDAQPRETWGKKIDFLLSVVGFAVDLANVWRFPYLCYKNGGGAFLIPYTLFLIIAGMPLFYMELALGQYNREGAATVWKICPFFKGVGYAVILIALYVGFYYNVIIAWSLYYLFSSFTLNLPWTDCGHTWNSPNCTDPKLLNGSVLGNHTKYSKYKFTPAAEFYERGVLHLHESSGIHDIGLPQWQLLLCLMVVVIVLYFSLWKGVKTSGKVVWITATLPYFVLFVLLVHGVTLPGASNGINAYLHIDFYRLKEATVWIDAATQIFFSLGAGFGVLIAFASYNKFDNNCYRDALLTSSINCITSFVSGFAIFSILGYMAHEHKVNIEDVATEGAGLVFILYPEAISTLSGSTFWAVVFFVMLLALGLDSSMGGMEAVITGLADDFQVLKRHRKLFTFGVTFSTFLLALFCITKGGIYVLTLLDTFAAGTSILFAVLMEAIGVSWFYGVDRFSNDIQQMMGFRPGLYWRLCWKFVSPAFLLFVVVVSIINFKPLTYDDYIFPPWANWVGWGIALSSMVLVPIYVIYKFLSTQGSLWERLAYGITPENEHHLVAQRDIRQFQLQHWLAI", "assay": "[^125I]23 binding to HEK-hNET membranes", "conditions": "maximal enhancement"}, "hDAT [6]": {"target": "T1, hDAT", "assay": "[^125I]23 binding to HEK-hDAT membranes", "conditions": "maximal enhancement"}, "mDAT": {"target": "mDAT (Mus musculus, UniProt Q61327)", "sequence (Q61327 whole entry)": "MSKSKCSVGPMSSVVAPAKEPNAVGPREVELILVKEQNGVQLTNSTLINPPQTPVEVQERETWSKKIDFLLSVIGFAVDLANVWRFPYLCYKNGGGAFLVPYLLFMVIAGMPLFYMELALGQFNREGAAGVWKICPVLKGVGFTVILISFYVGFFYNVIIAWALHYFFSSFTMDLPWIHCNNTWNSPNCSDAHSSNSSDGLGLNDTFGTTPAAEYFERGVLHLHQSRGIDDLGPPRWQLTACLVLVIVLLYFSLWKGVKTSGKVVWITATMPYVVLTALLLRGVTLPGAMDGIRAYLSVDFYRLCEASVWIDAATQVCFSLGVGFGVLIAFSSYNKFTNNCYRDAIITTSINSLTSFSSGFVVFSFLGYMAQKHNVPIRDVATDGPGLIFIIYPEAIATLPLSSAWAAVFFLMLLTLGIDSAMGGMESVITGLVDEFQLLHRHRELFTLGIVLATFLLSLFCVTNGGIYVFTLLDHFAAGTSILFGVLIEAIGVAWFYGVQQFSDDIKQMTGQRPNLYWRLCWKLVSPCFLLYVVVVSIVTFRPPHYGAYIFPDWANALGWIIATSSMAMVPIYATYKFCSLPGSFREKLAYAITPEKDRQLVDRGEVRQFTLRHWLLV", "assay": "[^125I]23 binding to mDAT expressed in HEK-293 cells"}, "hDAT [7]": {"target": "T1, hDAT", "conditions": "read-out: Kd of [^125I]23 at hDAT; no modulator; cited from earlier work"}, "[8]": {"system": "mouse chronic constriction injury (CCI) model of neuropathic pain", "assay": "mouse chronic constriction injury", "type": "in vivo", "conditions": "3 μmol/kg, p.o.; 7 d post-injury"}, "hDAT [9]": {"target": "T1, hDAT", "assay": "[^3H]26 binding to HEK-hDAT membranes"}}, "note": "Read-outs that look alike come from different tables or passages of the source."}
{"compound": "CNC(=O)[C@@]12C[C@@H]1[C@@H](n1cnc3c(NC)nc(C#Cc4ccc(Cl)s4)nc31)[C@H](O)[C@@H]2O", "note": "[compound 1, (1S,2R,3S,4R,5S)-4-(2-((5-chlorothiophen-2-yl)ethynyl)-6-(methylamino)-9H-purin-9-yl)-2,3-dihydroxy-N-methylbicyclo[3.1.0]hexane-1-carboxamide]", "values": [{"measurement": "hDAT Binding Inhibition, % of control", "setting": "hDAT [1]", "result": "NE (no effect)"}, {"measurement": "inhibition of cytochrome P450 (5 isozymes)", "setting": "[2]", "result": "do not inhibit"}, {"measurement": "stability in the presence of liver microsomes, plasma and simulated body fluids", "setting": "[3]", "result": "stable"}, {"measurement": "locomotor activity", "setting": "mouse; 10 mg/kg", "result": "did not significantly stimulate locomotor activity"}, {"measurement": "locomotor activity", "setting": "mouse; 30 mg/kg", "result": "reduced locomotor activity"}, {"measurement": "tolerability in vivo", "setting": "[4]", "result": "well tolerated"}]}
{"compound": "CNC(=O)[C@@]12C[C@@H]1[C@@H](n1cnc3c(NC)nc(C#Cc4ccc(Br)s4)nc31)[C@H](O)[C@@H]2O", "note": "[compound 2]", "values": [{"measurement": "hDAT Binding Inhibition, % of control", "setting": "hDAT [1]", "result": "NE (no effect)"}]}
{"compound": "CNC(=O)[C@@]12C[C@@H]1[C@@H](n1cnc3c(NC)nc(C#Cc4ccc(F)c(F)c4)nc31)[C@H](O)[C@@H]2O", "note": "[compound 3]", "values": [{"measurement": "hDAT Binding Inhibition, % of control", "setting": "hDAT [1]", "result": "NE (no effect)"}]}
{"compound": "CNC(=O)[C@@]12C[C@@H]1[C@@H](n1cnc3c(NC)nc(C#Cc4ccc(Cl)s4)cc31)[C@H](O)[C@@H]2O", "note": "[compound 6, (1S,2R,3S,4R,5S)-4-(6-((5-Chlorothiophen-2-yl)ethynyl)-4-(methylamino)-1H-imidazo[4,5-c]pyridin-1-yl)-2,3-dihydroxy-N-methylbicyclo[3.1.0]hexane-1-carboxamide]", "values": [{"measurement": "A3AR Binding % at 10 μM (m)", "setting": "mA3AR", "result": "< 50", "unit": "%"}, {"measurement": "inhibition at 10 µM", "setting": "hDAT [5]", "result": "< -20", "unit": "%"}]}
{"compound": "CCCNc1nc(C#Cc2ccc(Cl)s2)nc2c1ncn2[C@H]1[C@H](O)[C@H](O)[C@]2(C(=O)NC)C[C@H]12", "note": "[compound 7]", "values": [{"measurement": "fold greater mA3AR affinity compared to ribose 5′-amide 28", "setting": "mA3AR", "result": 88, "unit": "fold"}, {"measurement": "hDAT Binding Inhibition, % of control", "setting": "hDAT [1]", "result": "NE (no effect)"}]}
{"compound": "CNc1nc(C#Cc2ccc(Cl)s2)nc2c1ncn2[C@H]1[C@H](O)[C@H](O)[C@]2(C(=O)OC)C[C@H]12", "note": "[compound 9, Methyl (1S,2R,3S,4R,5S)-4-(2-((5-chlorothiophen-2-yl)ethynyl)-6-(methylamino)-9H-purin-9-yl)-2,3-dihydroxybicyclo[3.1.0]hexane-1-carboxylate]", "values": [{"measurement": "Ki", "setting": "mA3AR", "result": "> 10000", "unit": "nM"}, {"measurement": "A3AR Binding % at 10 μM (m)", "setting": "mA3AR", "result": "< 50", "unit": "%"}, {"measurement": "hNET [^125I]23 binding, % control binding", "setting": "hNET", "result": "~370", "unit": "%"}, {"measurement": "remaining activity at 10 µM", "setting": "hDAT [5]; read-out: hDAT Binding Enhancement, % of control", "result": 391, "unit": "%"}, {"measurement": "inhibition at 10 µM", "setting": "hDAT [5]", "result": "< -20", "unit": "%"}, {"measurement": "hDAT [^125I]23 binding, % control binding", "setting": "hDAT [6]", "result": "~450", "unit": "%"}]}
{"compound": "CCOC(=O)[C@@]12C[C@@H]1[C@@H](n1cnc3c(NC)nc(C#Cc4ccc(Cl)s4)nc31)[C@H](O)[C@@H]2O", "note": "[compound 10, Ethyl (1S,2R,3S,4R,5S)-4-(2-((5-chlorothiophen-2-yl)ethynyl)-6-(methylamino)-9H-purin-9-yl)-2,3-dihydroxybicyclo[3.1.0]hexane-1-carboxylate]", "values": [{"measurement": "A3AR Binding % at 10 μM (m)", "setting": "mA3AR", "result": "< 50", "unit": "%"}, {"measurement": "hNET [^125I]23 binding, % control binding", "setting": "hNET", "result": "~370", "unit": "%"}, {"measurement": "inhibition at 10 µM", "setting": "hDAT [5]", "result": "< -20", "unit": "%"}]}
{"compound": "CNc1nc(C#Cc2ccc(Cl)s2)nc2c1ncn2[C@H]1[C@H](O)[C@H](O)[C@]2(C(=O)OCc3ccccc3)C[C@H]12", "note": "[compound 19, Benzyl (1S,2R,3S,4R,5S)-4-(2-((5-chlorothiophen-2-yl)ethynyl)-6-(methylamino)-9H-purin-9-yl)-2,3-dihydroxybicyclo[3.1.0]hexane-1-carboxylate]", "values": [{"measurement": "inhibition at 10 µM", "setting": "hDAT [5]", "result": "-20 to 20", "unit": "%"}]}
{"compound": "CNc1nc(C#Cc2ccc(Cl)s2)nc2c1ncn2[C@H]1[C@H](O)[C@H](O)[C@]2(C(=O)OCCc3ccccc3)C[C@H]12", "note": "[compound 20, 2-Phenylethyl (1S,2R,3S,4R,5S)-4-(2-((5-chlorothiophen-2-yl)ethynyl)-6-(methylamino)-9H-purin-9-yl)-2,3-dihydroxybicyclo[3.1.0]hexane-1-carboxylate]", "values": [{"measurement": "inhibition at 10 µM", "setting": "hDAT [5]", "result": "-20 to 20", "unit": "%"}]}
{"compound": "CNc1nc(C#Cc2ccc(Cl)s2)nc2c1ncn2[C@H]1[C@H](O)[C@H](O)[C@]2(C(=O)OCCCc3ccccc3)C[C@H]12", "note": "[compound 21, 3-Phenylpropyl (1S,2R,3S,4R,5S)-4-(2-((5-chlorothiophen-2-yl)ethynyl)-6-(methylamino)-9H-purin-9-yl)-2,3-dihydroxybicyclo[3.1.0]hexane-1-carboxylate]", "values": [{"measurement": "inhibition at 10 µM", "setting": "hDAT [5]", "result": "-20 to 20", "unit": "%"}]}
{"compound": "CNc1nc(C#Cc2ccc(Cl)s2)nc2c1ncn2[C@H]1[C@H](O)[C@H](O)[C@]2(C(=O)O)C[C@H]12", "note": "[compound 22, (1S,2R,3S,4R,5S)-4-(2-((5-Chlorothiophen-2-yl)ethynyl)-6-(methylamino)-9H-purin-9-yl)-2,3-dihydroxybicyclo[3.1.0]hexane-1-carboxylic acid]", "values": [{"measurement": "inhibition at 10 µM", "setting": "hDAT [5]", "result": "< -20", "unit": "%"}]}
{"compound": "COC(=O)[C@H]1[C@@H](c2ccc(I)cc2)CC2CC[C@H]1N2C", "note": "[compound 23, methyl (1R,2S,3S)-3-(4-iodophenyl)-8-methyl-8-azabicyclo[3.2.1]octane-2-carboxylate]", "values": [{"measurement": "Kd", "setting": "mDAT", "result": 3.9, "unit": "nM"}, {"measurement": "Kd", "setting": "hDAT [7]", "result": 1.3, "unit": "nM"}]}
{"compound": "CNC(=O)[C@H]1O[C@@H](n2cnc3c(NC)nc(C#Cc4ccc(Cl)s4)nc32)[C@H](O)[C@@H]1O", "note": "[compound 27, (2S,3S,4R,5R)-5-(2-((5-Chlorothiophen-2-yl)ethynyl)-6-(methylamino)-9H-purin-9-yl)-3,4-dihydroxy-N-methyltetrahydrofuran-2-carboxamide]", "values": [{"measurement": "inhibition at 10 µM", "setting": "hDAT [5]", "result": "< -20", "unit": "%"}, {"measurement": "efficacy in increasing paw withdrawal threshold (PWT)", "setting": "[8]", "result": "fully efficacious"}]}
{"compound": "CCCNc1nc(C#Cc2ccc(Cl)s2)nc2c1ncn2[C@@H]1O[C@H](C(=O)NC)[C@@H](O)[C@H]1O", "note": "[compound 28, (2S,3S,4R,5R)-5-(2-((5-Chlorothiophen-2-yl)ethynyl)-6-(n-propylamino)-9H-purin-9-yl)-3,4-dihydroxy-N-methyltetrahydrofuran-2-carboxamide]", "values": [{"measurement": "inhibition at 10 µM", "setting": "hDAT [5]", "result": "< -20", "unit": "%"}, {"measurement": "efficacy in increasing paw withdrawal threshold (PWT)", "setting": "[8]", "result": "fully efficacious"}]}
{"compound": "CNc1nc(C#Cc2ccc(Cl)s2)nc2c1ncn2[C@@H]1O[C@H](C(=O)OC)[C@@H](O)[C@H]1O", "note": "[compound 29, Methyl (2S,3S,4R,5R)-5-(2-((5-Chlorothiophen-2-yl)ethynyl)-6-(methylamino)-9H-purin-9-yl)-3,4-dihydroxytetrahydrofuran-2-carboxylate]", "values": [{"measurement": "fold higher EC50 than 9 for enhancement of [^3H]26 binding at hDAT", "setting": "hDAT [9]", "result": 7, "unit": "fold"}, {"measurement": "inhibition at 10 µM", "setting": "hDAT [5]", "result": "< -20", "unit": "%"}]}
